Reference: US12473294B2, “Selective modulators of mutant LRRK2 proteolysis and associated methods of use” (Arvinas Operations, Inc., priority 2020, dated 2025)

What was measured:
[1] = biological target: T1, wildtype LRRK2 (Homo sapiens, UniProt Q5S007); test: LRRK2 degradation HiBit assay, wildtype LRRK2 tagged with a HiBit tag in HEK293 cells; format: cell-based; details: 24 hours compound incubation; for Dmax: read-out: ** WT Dmax (%); for DC50: read-out: *WT DC50
T1 construct: endogenous in cells; host or cells: HEK293 with HiBit knocked in at the 3' end of the endogenous LRRK2 gene, stably expressing firefly luciferase
T1 sequence (Q5S007 whole entry): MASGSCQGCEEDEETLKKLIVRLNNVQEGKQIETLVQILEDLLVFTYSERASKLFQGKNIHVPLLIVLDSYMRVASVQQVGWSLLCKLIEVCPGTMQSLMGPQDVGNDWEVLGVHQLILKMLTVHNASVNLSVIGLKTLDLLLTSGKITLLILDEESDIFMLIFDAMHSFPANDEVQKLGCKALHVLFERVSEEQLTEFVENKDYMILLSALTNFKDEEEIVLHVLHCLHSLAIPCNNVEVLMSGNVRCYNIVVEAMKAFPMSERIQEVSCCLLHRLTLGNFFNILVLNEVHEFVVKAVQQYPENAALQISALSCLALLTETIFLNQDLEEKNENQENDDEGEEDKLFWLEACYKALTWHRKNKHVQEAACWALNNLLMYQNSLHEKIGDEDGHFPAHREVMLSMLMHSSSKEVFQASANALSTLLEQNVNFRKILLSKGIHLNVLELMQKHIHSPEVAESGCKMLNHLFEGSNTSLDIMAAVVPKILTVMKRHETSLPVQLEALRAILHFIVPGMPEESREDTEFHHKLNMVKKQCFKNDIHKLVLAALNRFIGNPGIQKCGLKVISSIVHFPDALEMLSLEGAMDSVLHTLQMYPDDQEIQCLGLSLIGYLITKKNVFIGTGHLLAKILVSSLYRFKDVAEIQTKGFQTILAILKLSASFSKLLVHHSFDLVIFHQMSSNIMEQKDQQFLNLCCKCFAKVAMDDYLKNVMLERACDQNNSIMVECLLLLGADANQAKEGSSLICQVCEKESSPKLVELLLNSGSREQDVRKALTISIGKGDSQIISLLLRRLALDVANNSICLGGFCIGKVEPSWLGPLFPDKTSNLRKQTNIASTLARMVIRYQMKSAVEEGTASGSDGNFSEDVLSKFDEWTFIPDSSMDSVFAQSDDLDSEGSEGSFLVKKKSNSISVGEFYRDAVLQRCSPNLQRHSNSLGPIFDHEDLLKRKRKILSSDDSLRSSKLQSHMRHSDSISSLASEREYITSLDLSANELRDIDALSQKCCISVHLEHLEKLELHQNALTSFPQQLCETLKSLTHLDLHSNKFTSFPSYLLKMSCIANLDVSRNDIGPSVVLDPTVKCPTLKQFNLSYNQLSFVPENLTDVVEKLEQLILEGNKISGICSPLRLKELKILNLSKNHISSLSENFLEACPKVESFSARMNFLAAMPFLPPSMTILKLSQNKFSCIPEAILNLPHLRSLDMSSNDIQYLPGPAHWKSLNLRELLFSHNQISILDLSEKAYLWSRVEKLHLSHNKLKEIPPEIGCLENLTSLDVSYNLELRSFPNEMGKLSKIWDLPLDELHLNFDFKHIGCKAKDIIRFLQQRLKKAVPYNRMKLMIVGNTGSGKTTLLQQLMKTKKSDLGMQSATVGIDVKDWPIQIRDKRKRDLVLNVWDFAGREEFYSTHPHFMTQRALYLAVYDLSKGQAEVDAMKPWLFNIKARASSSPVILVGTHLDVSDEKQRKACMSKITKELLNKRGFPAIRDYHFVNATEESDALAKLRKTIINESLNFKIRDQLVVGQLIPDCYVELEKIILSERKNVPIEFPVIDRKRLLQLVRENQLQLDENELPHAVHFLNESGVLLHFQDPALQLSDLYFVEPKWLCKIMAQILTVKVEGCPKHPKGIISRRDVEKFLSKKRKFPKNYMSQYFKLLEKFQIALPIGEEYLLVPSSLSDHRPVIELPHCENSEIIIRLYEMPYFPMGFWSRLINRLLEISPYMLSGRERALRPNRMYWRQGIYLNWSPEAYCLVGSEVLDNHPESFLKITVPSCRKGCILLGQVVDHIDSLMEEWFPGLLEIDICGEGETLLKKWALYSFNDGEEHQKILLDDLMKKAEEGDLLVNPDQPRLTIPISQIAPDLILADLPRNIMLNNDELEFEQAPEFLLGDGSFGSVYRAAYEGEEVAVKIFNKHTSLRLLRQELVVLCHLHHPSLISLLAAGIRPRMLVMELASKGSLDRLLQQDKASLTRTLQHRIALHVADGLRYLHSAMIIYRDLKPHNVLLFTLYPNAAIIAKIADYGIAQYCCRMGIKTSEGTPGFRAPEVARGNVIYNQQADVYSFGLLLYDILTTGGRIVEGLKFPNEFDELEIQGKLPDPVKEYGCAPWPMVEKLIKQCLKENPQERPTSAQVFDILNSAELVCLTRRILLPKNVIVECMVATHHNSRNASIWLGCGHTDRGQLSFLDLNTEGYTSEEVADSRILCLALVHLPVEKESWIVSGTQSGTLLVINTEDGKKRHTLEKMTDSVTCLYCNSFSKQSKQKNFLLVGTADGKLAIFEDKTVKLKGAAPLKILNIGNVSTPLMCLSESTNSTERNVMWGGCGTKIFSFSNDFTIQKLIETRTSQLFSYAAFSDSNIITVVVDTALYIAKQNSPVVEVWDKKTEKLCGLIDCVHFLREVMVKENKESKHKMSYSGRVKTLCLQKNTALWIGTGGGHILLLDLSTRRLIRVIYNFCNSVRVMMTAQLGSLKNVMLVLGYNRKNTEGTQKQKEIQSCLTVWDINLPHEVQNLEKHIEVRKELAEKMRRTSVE
Protocol: (§1) The assay measures the degradation of wildtype and G2019S LRRK2 tagged with a HiBit tag on the C-terminus of the protein that was expressed from a mammalian expression vector, driven by the ubiquitin promoter in HEK293 cells. Each compound dose-response was repeated on two separate days, on three separate plates each day.
(§2) Plasmid Preparation. Transfection mixes were assembled as follows and incubated for 30 minutes at room temperature. In a 15 mL tube, 5.25 mL Opti-MEM (no additions) was mixed with 17 μL Firefly Luciferase plasmid at 1 μg/μL and 158 μL WT plasmid DNA at 1 μg/μL (175 μg total DNA) were mixed by flicking. In a new 15 mL tube, 5.25 mL OptiMEM was mixed with 17 μL Firefly Luciferase plasmid at 1 μg/μL and 158 μL G2019S plasmid DNA at 1 μg/μL (175 μg total DNA) were mixed by flicking. X-tremeGene HP was mixed thoroughly using a vortex. Next, 175 μL was added to each tube and flicked to mix. Both tubes were left to incubate for 30 minutes at room temperature.
While the transfection mixes were incubating, HEK293 cells (acquired from ATCC; ATCC CRL-1573) were harvested with trypsin. Once cells are detached, the cells were resuspended in 12 mL OptiMEM+5% FBS and transferred to a 50 mL tube. The cells were mixed well and counted. Using OptiMEM+5% FBS, the cells were diluted in two 250 mL conical tubes at 0.71×10^6 cells/mL in 70 mL. One tube was labeled “WT” and the other “G2019S”. The WT and G2019S transfection mixes were added dropwise to the corresponding 250 mL tubes. The tubes were mixed first by pipetting then by swirling. The tubes were incubated at room temperature for at least 5 minutes.
(§3) Each tube was swirled before dispensing and after every three plates. Seventy microliters of cells were dispensed with WT or G2019S DNA to seven plates each. Three plates of each were tested with compound plate one (preparation described below) and three plates of each were tested with compound plate two (preparation described below). The first plate from each set served as a “prime” plate and was not used to test compounds. Each plate was incubated in the hood for 10 minutes before placing in the 37° C. incubator for 24 hours.
(§4) Preparation of Compound and Assay Plates. Two compound plates were made using 96 well polypropylene plates. Compounds were made up at 10 mM and were diluted to 1 mM in 30 μL. Each dose response curve included a well of DMSO, as a negative control and for normalization, and a well of 0.5 μM of Exemplary Compound 4 as a positive control. In addition to seven test compounds, each plate also included a dose response of Exemplary Compound 4. The compound plates were spun down along at 1200 rpm for 2 minutes.
(§5) The two compound plates were then mixed and 2 μL was diluted in intermediate plates having 248 μL of Opti-Mem in each well. Next, 10 μL diluted compounds from the intermediate plates were added to each test plate (three WT and three G2019S plates per compound plate for a total of 12 assay plates). The plates were incubated for 24 hours at 37° C.
(§6) All assay plates and all Nano-Glo Dual-Luciferase Reporter Assay System components (except for the DLR substrate) were equilibrated to room temperature. Next, the luciferase buffer was mixed with the lyophilized amber bottle until fully dissolved, and 75 μL of the luciferase mixture was added to each well of each assay plate. The assay plates were incubated for 10 minutes at room temperature with shaking for at least 5 minutes, and then read on a plate reader.
(§7) Developing Plates and Analyzing Data. One milliliter of DLR substrate and 1 mL LgBiT Protein were added to the Stop and Glo buffer, and 75 μL of the mixture was added to each well of each plate. Optically clear seals were added to each plate and each plate was incubated for 20 minutes with shaking for at least 10 minutes, and then read on a plate reader. […]

[2] = biological target: T2, G2019S LRRK2 (Homo sapiens, UniProt Q5S007, G2019S); test: LRRK2 degradation HiBit assay, G2019S LRRK2 tagged with a HiBit tag expressed in HEK293 cells; format: cell-based; details: 24 hours compound incubation; for Dmax: HEK293, HEK293 cells
T2 construct: expressed in transfected cells; host or cells: HEK293 (ATCC CRL-1573)
T2 sequence (Q5S007 whole entry G2019S): as the sequence (Q5S007 whole entry) above, with G2019S counted along it
Protocol: as §1, with “three” for “two”
as §2
While the transfection mixes were incubating, HEK293 cells acquired from ATCC (ATCC CRL-1573) were harvested with trypsin. Once cells are detached, the cells were resuspended in 12 mL OptiMEM+5% FBS and transferred to a 50 mL tube. The cells were mixed well and counted. Using OptiMEM+5% FBS, the cells were diluted in two 250 mL conical tubes at 0.71×10^6 cells/mL in 70 mL. One tube was labeled “WT” and the other “G2019S”. The WT and G2019S transfection mixes were added dropwise to the corresponding 250 mL tubes. The tubes were mixed first by pipetting then by swirling. The tubes were incubated at room temperature for at least 5 minutes.
as §3, §4, §5, §6, §7

| Compound | Dmax [1] | DC50 [1] | **G2019S Dmax (%) ([2]; HEK293 cells) | DC50 ([2]; HEK293 cells) | Dmax [2] |
| --- | --- | --- | --- | --- | --- |
| CC1=C(C(=O)Nc2ccc3[nH]nc(-c4ccnc(N5CCN(CCN6CCN(CC7CCN(c8ccc9c(c8)C(=O)N(C8CCC(=O)NC8=O)C9=O)CC7)CC6)CC5)c4)c3c2)[C@@H](C)n2nnnc2N1C (stereo partly drawn) [compound 25, (7R)-N-{3-[2-(4-{2-[4-({1-[2-(2,6-dioxopiperidin-3-yl)-1,3-dioxo-2,3-dihydro-1H-isoindol-5-yl]piperidin-4-yl}methyl)piperazin-1-yl]ethyl}piperazin-1-yl)pyridin-4-yl]-1H-indazol-5-yl}-4,5,7-trimethyl-4H,7H-[1,2,3,4]tetrazolo[1,5-a]pyrimidine-6-carboxamide] | ≥ 70% | 50 to 100 nM | A (A ≥ 70) | 10 to 50 nM | – |
| CC1=C(C(=O)Nc2ccc3[nH]nc(-c4ccnc(N5CC6(CN(CC7CCN(c8ccc9c(c8)C(=O)N(C8CCC(=O)NC8=O)C9=O)CC7)C6)C5)c4)c3c2)[C@@H](C)n2nnnc2N1C (stereo partly drawn) [compound 26, (7R)-N-(3-{2-[6-({1-[2-(2,6-dioxopiperidin-3-yl)-1,3-dioxo-2,3-dihydro-1H-isoindol-5-yl]piperidin-4-yl}methyl)-2,6-diazaspiro[3.3]heptan-2-yl]pyridin-4-yl}-1H-indazol-5-yl)-4,5,7-trimethyl-4H,7H-[1,2,3,4]tetrazolo[1,5-a]pyrimidine-6-carboxamide] | – | ≥ 100 nM | – | ≥ 100 nM | ≥ 70% |
| CC1=C(C(=O)Nc2ccc3[nH]nc(-c4ccnc(N5CCN(CCN6CCC(CN7CCN(c8ccc9c(c8)C(=O)N(C8CCC(=O)NC8=O)C9=O)CC7)CC6)CC5)c4)c3c2)[C@H](C)n2nnnc2N1C (stereo partly drawn) [compound 27, (7S)-N-{3-[2-(4-{2-[4-({4-[2-(2,6-dioxopiperidin-3-yl)-1,3-dioxo-2,3-dihydro-1H-isoindol-5-yl]piperazin-1-yl}methyl)piperidin-1-yl]ethyl}piperazin-1-yl)pyridin-4-yl]-1H-indazol-5-yl}-4,5,7-trimethyl-4H,7H-[1,2,3,4]tetrazolo[1,5-a]pyrimidine-6-carboxamide] | – | ≥ 100 nM | – | ≥ 100 nM | 50 to 70% |
| CC1=C(C(=O)Nc2ccc3[nH]nc(-c4ccnc(N5CCN(CCN6CCN(CC7CCN(c8ccc9c(c8)C(=O)N(C8CCC(=O)NC8=O)C9=O)CC7)CC6)[C@@H](C)C5)c4)c3c2)[C@H](C)n2nnnc2N1C (stereo partly drawn) [compound 28, (7S)-N-(3-{2-[(3S)-4-{2-[4-({1-[2-(2,6-dioxopiperidin-3-yl)-1,3-dioxo-2,3-dihydro-1H-isoindol-5-yl]piperidin-4-yl}methyl)piperazin-1-yl]ethyl}-3-methylpiperazin-1-yl]pyridin-4-yl}-1H-indazol-5-yl)-4,5,7-trimethyl-4H,7H-[1,2,3,4]tetrazolo[1,5-a]pyrimidine-6-carboxamide] | – | ≥ 100 nM | – | ≥ 100 nM | 50 to 70% |
| CC1=C(C(=O)Nc2ccc3[nH]nc(-c4ccnc(N5CCN(CC6CCN(CC7CCN(c8ccc9c(c8)C(=O)N(C8CCC(=O)NC8=O)C9=O)CC7)CC6)CC5)c4)c3c2)C(C)(C)n2nnnc2N1C (stereo not shown) [compound 29, N-{3-[2-(4-{[1-({1-[2-(2,6-dioxopiperidin-3-yl)-1,3-dioxo-2,3-dihydro-1H-isoindol-5-yl]piperidin-4-yl}methyl)piperidin-4-yl]methyl}piperazin-1-yl)pyridin-4-yl]-1H-indazol-5-yl}-4,5,7,7-tetramethyl-4H,7H-[1,2,3,4]tetrazolo[1,5-a]pyrimidine-6-carboxamide] | < 50% | ≥ 100 nM | – | 10 to 50 nM | < 50% |
| CC1=C(C(=O)Nc2ccc3[nH]nc(-c4ccnc(N5CCN(CCN6CCN(CC7CCN(c8ccc9c(c8)C(=O)N(C8CCC(=O)NC8=O)C9=O)CC7)CC6)[C@@H](C)C5)c4)c3c2)C(C)(C)n2nnnc2N1C (stereo partly drawn) [compound 30, N-(3-{2-[(3S)-4-{2-[4-({1-[2-(2,6-dioxopiperidin-3-yl)-1,3-dioxo-2,3-dihydro-1H-isoindol-5-yl]piperidin-4-yl}methyl)piperazin-1-yl]ethyl}-3-methylpiperazin-1-yl]pyridin-4-yl}-1H-indazol-5-yl)-4,5,7,7-tetramethyl-4H,7H-[1,2,3,4]tetrazolo[1,5-a]pyrimidine-6-carboxamide] | < 50% | ≥ 100 nM | – | 10 to 50 nM | < 50% |
| CC1=C(C(=O)Nc2ccc3[nH]nc(-c4ccnc(N5CCN(CCN6CCC(CN7CCN(c8ccc9c(c8)C(=O)N(C8CCC(=O)NC8=O)C9=O)CC7)CC6)[C@@H](C)C5)c4)c3c2)[C@H](C)n2nnnc2N1C (stereo partly drawn) [compound 31, (7S)-N-(3-{2-[(3S)-4-{2-[4-({4-[2-(2,6-dioxopiperidin-3-yl)-1,3-dioxo-2,3-dihydro-1H-isoindol-5-yl]piperazin-1-yl}methyl)piperidin-1-yl]ethyl}-3-methylpiperazin-1-yl]pyridin-4-yl}-1H-indazol-5-yl)-4,5,7-trimethyl-4H,7H-[1,2,3,4]tetrazolo[1,5-a]pyrimidine-6-carboxamide] | – | ≥ 100 nM | – | ≥ 100 nM | < 50% |
| CC1=C(C(=O)Nc2ccc3[nH]nc(-c4ccnc(N5CCO[C@@H](CN6CCN(CC7CCN(c8ccc9c(c8)C(=O)N(C8CCC(=O)NC8=O)C9=O)CC7)CC6)C5)c4)c3c2)C(C)(C)n2nnnc2N1C (stereo partly drawn) [compound 32, N-(3-{2-[(2S)-2-{[4-({1-[2-(2,6-dioxopiperidin-3-yl)-1,3-dioxo-2,3-dihydro-1H-isoindol-5-yl]piperidin-4-yl}methyl)piperazin-1-yl]methyl}morpholin-4-yl]pyridin-4-yl}-1H-indazol-5-yl)-4,5,7,7-tetramethyl-4H,7H-[1,2,3,4]tetrazolo[1,5-a]pyrimidine-6-carboxamide] | – | ≥ 100 nM | – | 10 to 50 nM | < 50% |
| CC1=C(C(=O)Nc2ccc3[nH]nc(-c4ccnc(N5CCN(CCN6CCC(CN7CCN(c8ccc9c(c8)C(=O)N(C8CCC(=O)NC8=O)C9=O)CC7)CC6)CC5)c4)c3c2)C(C)(C)n2nnnc2N1C (stereo not shown) [compound 33, N-{3-[2-(4-{2-[4-({4-[2-(2,6-dioxopiperidin-3-yl)-1,3-dioxo-2,3-dihydro-1H-isoindol-5-yl]piperazin-1-yl}methyl)piperidin-1-yl]ethyl}piperazin-1-yl)pyridin-4-yl]-1H-indazol-5-yl}-4,5,7,7-tetramethyl-4H,7H-[1,2,3,4]tetrazolo[1,5-a]pyrimidine-6-carboxamide] | < 50% | ≥ 100 nM | – | ≥ 100 nM | < 50% |
